Active and inactive are the calls of the source. The calls are words filed in the database; no cut-off is given here.
Columns and labels:
[1] = target: Metabotropic glutamate receptor 3 (Rattus norvegicus) (UniProt P31422); assay: Positive allosteric modulator activity at rat mGlu3 receptor transfected in GIRK channel overexpressing cells assessed as potentiation of glutamate-induced response by thallium mobilization assay relative to glutamate; design: concentration or dose not given beside the values
Metabotropic glutamate receptor 3 (Rattus norvegicus), sequence (P31422 23-879 limits assumed): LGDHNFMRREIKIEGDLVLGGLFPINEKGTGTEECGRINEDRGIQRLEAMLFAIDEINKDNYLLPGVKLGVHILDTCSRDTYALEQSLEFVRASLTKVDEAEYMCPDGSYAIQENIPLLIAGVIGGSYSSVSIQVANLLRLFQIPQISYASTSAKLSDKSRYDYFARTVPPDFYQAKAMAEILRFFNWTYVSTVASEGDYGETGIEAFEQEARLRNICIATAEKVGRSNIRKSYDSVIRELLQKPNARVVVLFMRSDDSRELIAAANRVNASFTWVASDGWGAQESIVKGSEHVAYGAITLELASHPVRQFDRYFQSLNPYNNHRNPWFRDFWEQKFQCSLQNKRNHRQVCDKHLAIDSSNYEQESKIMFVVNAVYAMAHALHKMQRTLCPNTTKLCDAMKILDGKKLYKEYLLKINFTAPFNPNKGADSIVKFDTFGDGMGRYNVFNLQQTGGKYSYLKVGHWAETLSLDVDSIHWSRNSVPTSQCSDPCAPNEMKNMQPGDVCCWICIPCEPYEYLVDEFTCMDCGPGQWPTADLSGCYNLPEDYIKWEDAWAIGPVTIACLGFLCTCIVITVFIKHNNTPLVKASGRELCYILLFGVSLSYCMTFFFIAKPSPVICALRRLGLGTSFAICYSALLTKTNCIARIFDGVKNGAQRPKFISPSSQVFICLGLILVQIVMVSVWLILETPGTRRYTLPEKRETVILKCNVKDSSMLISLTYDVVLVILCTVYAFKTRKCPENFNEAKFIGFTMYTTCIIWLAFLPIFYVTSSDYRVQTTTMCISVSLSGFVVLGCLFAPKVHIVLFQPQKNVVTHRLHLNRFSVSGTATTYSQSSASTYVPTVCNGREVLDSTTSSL

[2] = target: Metabotropic glutamate receptor 2 (Rattus norvegicus, UniProt P31421); assay: Positive allosteric modulator activity at rat mGlu2 receptor transfected in GIRK channel overexpressing cells assessed as potentiation of glutamate-induced response by thallium mobilization assay
Metabotropic glutamate receptor 2, sequence (P31421 whole entry): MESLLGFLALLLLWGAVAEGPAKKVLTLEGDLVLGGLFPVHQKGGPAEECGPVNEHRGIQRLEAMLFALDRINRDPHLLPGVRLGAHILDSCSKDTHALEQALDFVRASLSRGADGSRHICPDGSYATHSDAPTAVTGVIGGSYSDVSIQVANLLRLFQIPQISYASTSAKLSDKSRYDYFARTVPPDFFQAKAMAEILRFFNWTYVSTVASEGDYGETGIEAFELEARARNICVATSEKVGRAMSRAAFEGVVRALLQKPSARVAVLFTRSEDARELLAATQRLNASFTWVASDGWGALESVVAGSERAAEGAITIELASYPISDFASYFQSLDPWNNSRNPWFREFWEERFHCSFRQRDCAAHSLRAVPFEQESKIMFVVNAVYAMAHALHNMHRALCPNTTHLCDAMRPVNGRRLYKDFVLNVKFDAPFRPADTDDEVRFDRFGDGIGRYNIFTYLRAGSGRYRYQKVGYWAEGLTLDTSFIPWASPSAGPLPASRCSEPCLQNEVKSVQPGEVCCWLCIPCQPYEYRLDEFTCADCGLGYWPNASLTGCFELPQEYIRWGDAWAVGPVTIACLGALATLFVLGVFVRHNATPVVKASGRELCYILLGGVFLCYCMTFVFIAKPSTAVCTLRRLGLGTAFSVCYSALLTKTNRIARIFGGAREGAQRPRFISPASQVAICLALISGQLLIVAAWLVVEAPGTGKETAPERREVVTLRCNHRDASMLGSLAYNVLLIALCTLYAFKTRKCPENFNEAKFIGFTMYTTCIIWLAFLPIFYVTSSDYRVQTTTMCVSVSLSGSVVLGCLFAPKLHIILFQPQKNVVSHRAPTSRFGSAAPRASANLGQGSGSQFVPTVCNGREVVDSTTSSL

[3] = target: Metabotropic glutamate receptor 3 (Rattus norvegicus, UniProt P31422); assay: Positive allosteric modulator activity at rat mGlu3 receptor transfected in GIRK channel overexpressing cells assessed as potentiation of glutamate-induced response by thallium mobilization assay
Metabotropic glutamate receptor 3, sequence (P31422 whole entry): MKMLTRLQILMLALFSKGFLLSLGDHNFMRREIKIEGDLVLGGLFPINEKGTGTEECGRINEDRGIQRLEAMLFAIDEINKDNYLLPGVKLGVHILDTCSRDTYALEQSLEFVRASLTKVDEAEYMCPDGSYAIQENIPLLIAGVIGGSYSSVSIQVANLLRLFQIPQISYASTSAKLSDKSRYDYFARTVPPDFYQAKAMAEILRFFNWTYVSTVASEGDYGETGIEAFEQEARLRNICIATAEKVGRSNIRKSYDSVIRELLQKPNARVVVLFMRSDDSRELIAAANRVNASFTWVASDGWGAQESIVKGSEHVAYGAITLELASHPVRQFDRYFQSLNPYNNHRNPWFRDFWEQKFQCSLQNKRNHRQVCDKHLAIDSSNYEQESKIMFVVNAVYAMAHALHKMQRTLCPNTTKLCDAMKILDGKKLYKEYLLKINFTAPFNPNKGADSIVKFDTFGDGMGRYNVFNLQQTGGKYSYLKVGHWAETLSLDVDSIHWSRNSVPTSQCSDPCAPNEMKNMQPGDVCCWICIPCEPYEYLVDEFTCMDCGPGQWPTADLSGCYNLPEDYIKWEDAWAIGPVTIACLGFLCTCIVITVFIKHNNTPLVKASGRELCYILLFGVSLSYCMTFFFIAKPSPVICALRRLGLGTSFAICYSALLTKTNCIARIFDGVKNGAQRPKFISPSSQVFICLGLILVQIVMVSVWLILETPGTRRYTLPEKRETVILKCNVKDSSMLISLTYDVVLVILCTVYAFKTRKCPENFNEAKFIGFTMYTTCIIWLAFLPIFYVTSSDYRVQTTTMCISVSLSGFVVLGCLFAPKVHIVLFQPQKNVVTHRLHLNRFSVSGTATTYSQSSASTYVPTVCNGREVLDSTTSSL

[4] = target: Metabotropic glutamate receptor 2 (Rattus norvegicus) (UniProt P31421); assay: Positive allosteric modulator activity at rat mGlu2 receptor transfected in GIRK channel overexpressing cells assessed as potentiation of glutamate -induced response by thallium mobilization assay relative to glutamate; design: concentration or dose not given beside the values
Metabotropic glutamate receptor 2 (Rattus norvegicus), sequence (P31421 19-872 limits assumed): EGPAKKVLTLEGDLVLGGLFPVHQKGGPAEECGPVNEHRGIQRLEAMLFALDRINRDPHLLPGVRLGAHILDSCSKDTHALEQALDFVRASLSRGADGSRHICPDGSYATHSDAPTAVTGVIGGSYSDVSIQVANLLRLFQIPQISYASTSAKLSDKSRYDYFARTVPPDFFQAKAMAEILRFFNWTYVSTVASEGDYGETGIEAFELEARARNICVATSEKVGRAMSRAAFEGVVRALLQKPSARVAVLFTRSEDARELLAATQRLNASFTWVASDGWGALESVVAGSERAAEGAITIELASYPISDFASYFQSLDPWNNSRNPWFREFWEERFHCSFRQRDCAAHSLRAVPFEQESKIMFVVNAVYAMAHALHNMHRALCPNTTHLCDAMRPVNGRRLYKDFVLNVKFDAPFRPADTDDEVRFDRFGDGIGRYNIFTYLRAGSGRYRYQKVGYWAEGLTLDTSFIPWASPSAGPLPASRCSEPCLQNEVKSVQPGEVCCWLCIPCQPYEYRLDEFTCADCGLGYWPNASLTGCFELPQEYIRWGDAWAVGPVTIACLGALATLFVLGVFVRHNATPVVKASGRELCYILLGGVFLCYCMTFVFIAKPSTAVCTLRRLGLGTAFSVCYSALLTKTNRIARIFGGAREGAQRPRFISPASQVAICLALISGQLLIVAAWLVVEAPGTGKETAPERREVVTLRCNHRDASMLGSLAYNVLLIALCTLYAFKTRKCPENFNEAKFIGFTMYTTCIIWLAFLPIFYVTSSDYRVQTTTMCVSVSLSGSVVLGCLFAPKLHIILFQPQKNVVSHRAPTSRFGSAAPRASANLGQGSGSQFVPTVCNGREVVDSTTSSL

[5] = target: Metabotropic glutamate receptor 3 (Mus musculus) (UniProt Q9QYS2); assay: Positive allosteric modulator activity at mGlu3 receptor in CaMK2-Cre::GCaMP6s transgenic mouse PFC pyramidal cells assessed as potentiation of LY379268-induced Ca2+ mobilization at 10 uM in presence of mGlu2 negative allosteric modulator, VU6001966 by calcium imagining analysis; type: functional; conditions: filed as positive allosteric modulator
Metabotropic glutamate receptor 3 (Mus musculus), sequence (Q9QYS2 whole entry): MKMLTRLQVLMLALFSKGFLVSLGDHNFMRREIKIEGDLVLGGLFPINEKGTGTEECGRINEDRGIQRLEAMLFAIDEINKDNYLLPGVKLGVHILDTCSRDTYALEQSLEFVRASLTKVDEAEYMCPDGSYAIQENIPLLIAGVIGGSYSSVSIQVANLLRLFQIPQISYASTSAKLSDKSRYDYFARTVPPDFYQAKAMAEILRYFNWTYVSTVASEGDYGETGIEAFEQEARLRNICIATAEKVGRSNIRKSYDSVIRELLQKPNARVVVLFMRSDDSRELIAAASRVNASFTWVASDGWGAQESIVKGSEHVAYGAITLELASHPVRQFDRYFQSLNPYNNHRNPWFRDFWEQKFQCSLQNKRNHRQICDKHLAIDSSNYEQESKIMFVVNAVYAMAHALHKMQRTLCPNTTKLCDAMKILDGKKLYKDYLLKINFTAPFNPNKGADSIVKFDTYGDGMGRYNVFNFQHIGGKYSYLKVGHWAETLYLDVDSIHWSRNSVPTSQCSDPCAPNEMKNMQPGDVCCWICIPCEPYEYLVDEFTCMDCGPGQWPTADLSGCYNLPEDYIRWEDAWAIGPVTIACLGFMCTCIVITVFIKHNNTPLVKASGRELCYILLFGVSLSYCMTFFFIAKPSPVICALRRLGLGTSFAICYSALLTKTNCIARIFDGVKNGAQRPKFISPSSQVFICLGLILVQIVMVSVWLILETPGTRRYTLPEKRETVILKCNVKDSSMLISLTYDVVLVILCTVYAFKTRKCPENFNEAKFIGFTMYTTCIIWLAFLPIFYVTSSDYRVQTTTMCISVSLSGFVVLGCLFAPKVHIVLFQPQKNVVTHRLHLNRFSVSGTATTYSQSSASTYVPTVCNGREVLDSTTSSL

[6] = filed as positive allosteric modulator

Activity [1, 6] [%]	EC50 ([2]; read-out: EC50) [nM]	EC50 ([3]; read-out: EC50) [nM]	Activity [4, 6] [%]	Activity [1]	EC50 [2]	EC50 [3]	Activity [4]	Activity [5]	SMILES
87	222	1300	98						Cc1c(OCC(C)COc2ccc(C(=O)O)cc2F)ccc(C(=O)CC(C)(C)C)c1O (single isomer, unassigned)
99	13	490	116						COc1ccc(OCCCCOc2ccc(C(=O)CC(C)(C)C)c(O)c2C)cc1C(=O)O
73	377	2200	120						Cc1c(OC[C@@H](C)COc2ccc(Cl)c(C(=O)O)c2)ccc(C(=O)CC(C)(C)C)c1O
				inactive	Not Active	Not Active	inactive		COc1cccc(OC[C@H](C)COc2ccc(C(=O)CC(C)(C)C)c(O)c2C)c1
91	490	180	120						Cc1c(OCCCCOc2cncc(C(=O)O)c2)ccc(C(=O)CC(C)(C)C)c1O
144	512	892	120						Cc1ccc(C(=O)O)cc1OCCCCOc1ccc(C(=O)CC(C)(C)C)c(O)c1C
93	50	860	107						Cc1c(OC[C@@H](C)COc2ccc(C(=O)O)c(Cl)c2)ccc(C(=O)CC(C)(C)C)c1O
48		> 10000							Cc1ccc(OC[C@H](C)COc2ccc(C(=O)CC(C)(C)C)c(O)c2C)cc1C(=O)O
102	102	703	116						COc1cc(OCCCCOc2ccc(C(=O)CC(C)(C)C)c(O)c2C)cc(C(=O)O)c1
	> 10000		107	inactive		Not Active			Cc1c(OCCCCOc2ccc(F)c(C(N)=O)c2)ccc(C(=O)CC(C)(C)C)c1O
	> 10000		103	inactive		Not Active			COc1ccc(OCCCCOc2ccc(C(=O)CC(C)(C)C)c(O)c2C)cc1
89	257	1120	114						Cc1c(O[C@@H](C)COc2ccc(F)c(C(=O)O)c2)ccc(C(=O)CC(C)(C)C)c1O
105	142	1100	122						Cc1c(OC[C@H](C)Oc2ccc(F)c(C(=O)O)c2)ccc(C(=O)CC(C)(C)C)c1O
111		1850							COc1ccc(C(=O)O)cc1O[C@H](C)COc1ccc(C(=O)CC(C)(C)C)c(O)c1C
88	210	309	90						Cc1ccc(OCCCCOc2ccc(C(=O)CC(C)(C)C)c(O)c2C)cc1C(=O)O
	> 10000		50	inactive		Not Active			Cc1c(OC[C@@H](C)COc2ccc3c(c2)C(=O)NC3)ccc(C(=O)CC(C)(C)C)c1O
				inactive	Not Active	Not Active	inactive		COc1ccccc1OCC(C)COc1ccc(C(=O)CC(C)(C)C)c(O)c1C (single isomer, unassigned)
87	87	130	112						Cc1c(OCCCCOc2ccc(Cl)c(C(=O)O)c2)ccc(C(=O)CC(C)(C)C)c1O
93	28	512	110						COc1cc(C(=O)O)ccc1OC[C@H](C)COc1ccc(C(=O)CC(C)(C)C)c(O)c1C
97	78	806	114						COc1ccc(C(=O)O)cc1OC[C@@H](C)Oc1ccc(C(=O)CC(C)(C)C)c(O)c1C
92	112	1180	99						Cc1c(OC[C@@H](C)COc2ccc(F)c(C(=O)O)c2)ccc(C(=O)CC(C)(C)C)c1O

Activity [1, 6] [%]	EC50 ([2]; read-out: EC50) [nM]	EC50 ([3]; read-out: EC50) [nM]	Activity [4, 6] [%]	Activity [1]	EC50 [2]	EC50 [3]	Activity [4]	Activity [5]	SMILES
				inactive		Not Active			COC(=O)c1cc(OCCCCOc2ccc(C(=O)CC(C)(C)C)c(O)c2C)ccc1F
87	294	651	114						Cc1c(OC[C@H](C)COc2ccc(F)c(C(=O)O)c2)ccc(C(=O)CC(C)(C)C)c1O
103	28	79	116						Cc1ncc(OCCCCOc2ccc(C(=O)CC(C)(C)C)c(O)c2C)cc1C(=O)O
79	83	2410	118						Cc1c(O[C@H](C)COc2ccc(F)c(C(=O)O)c2)ccc(C(=O)CC(C)(C)C)c1O
	3810		60	inactive		Not Active			Cc1c(OCCCCOc2ccc(F)c(C(=O)N(C)C)c2)ccc(C(=O)CC(C)(C)C)c1O
80	305	1350	91						Cc1cc(OC[C@H](C)COc2ccc(C(=O)CC(C)(C)C)c(O)c2C)ccc1C(=O)O
98	75	1230	114						Cc1c(OCCCCOc2ccc(C(=O)O)cc2F)ccc(C(=O)CC(C)(C)C)c1O
117	112	1210	125						Cc1c(OC[C@@H](C)Oc2ccc(F)c(C(=O)O)c2)ccc(C(=O)CC(C)(C)C)c1O
	5060		82	inactive		Not Active			COc1ccc(C(=O)N(C)C)cc1OCC(C)COc1ccc(C(=O)CC(C)(C)C)c(O)c1C (single isomer, unassigned)
74		3950							Cc1c(OCC(C)COc2cc(C(=O)O)ccc2F)ccc(C(=O)CC(C)(C)C)c1O (single isomer, unassigned)
88	194	1460	94						COc1cc(OC[C@H](C)COc2ccc(C(=O)CC(C)(C)C)c(O)c2C)ccc1C(=O)O
111	63	384	98					Active	COc1ccc(C(=O)O)cc1OC[C@H](C)COc1ccc(C(=O)CC(C)(C)C)c(O)c1C
97	446	1520	113						Cc1cc(C(=O)O)ccc1OC[C@H](C)COc1ccc(C(=O)CC(C)(C)C)c(O)c1C
91	137	2210	117						COc1ccc(C(=O)O)cc1O[C@@H](C)COc1ccc(C(=O)CC(C)(C)C)c(O)c1C
107	80	1110	108						Cc1c(OCCCCOc2ccc(C(=O)O)c(F)c2)ccc(C(=O)CC(C)(C)C)c1O
120		1040							COc1ccc(C(=O)O)cc1OC[C@@H](C)COc1ccc(C(=O)CC(C)(C)C)c(O)c1C
86	261	1090	94						Cc1c(OC[C@@H](C)COc2ccc(C(=O)O)c(F)c2)ccc(C(=O)CC(C)(C)C)c1O
98	477	1650	97						Cc1c(OCC(C)COc2ccc(C(=O)O)cc2Cl)ccc(C(=O)CC(C)(C)C)c1O (single isomer, unassigned)
71		3820							COc1ccc(C(=O)O)cc1OC[C@H](C)Oc1ccc(C(=O)CC(C)(C)C)c(O)c1C
103	164	476	110					Active	CNC(=O)c1cc(OCCCCOc2ccc(C(=O)CC(C)(C)C)c(O)c2C)ccc1F

Source: ChEMBL document CHEMBL4834498, “Positive allosteric modulators (PAMs) of the group II metabotropic glutamate receptors: Design, synthesis, and evaluation as ex-vivo tool compounds” (Bioorg Med Chem Lett, 2021)
